# Experimental data reported in patent publication US7981930B2, “Compositions and kits for treating influenza” (Adamas Pharmaceuticals, Inc., priority 2007, dated 2011).
# Tested on: wild type A/Albany (H3N2) strain
# Test: Hollow fiber system, MDCK cells, continuous infusion 168 hours, viral titer and sequencing
# Format: cell-based, Influenza A virus (H3N2)
# Settings: monotherapy arms vs. triple high dose arm
smiles,measurement,value
CCOC(=O)C1=C[C@@H](OC(CC)CC)[C@H](NC(C)=O)[C@@H](N)C1 [Oseltamivir],"formation of drug resistance (M2, NA sequencing)",appreciable formation of M2 and NA drug resistance
